From patent US9169254B2, “Spiroimidazolone derivative” (Chugai Seiyaku Kabushiki Kaisha, priority 2009, dated 2015)

target: T1, human PTH1 receptor (Homo sapiens, UniProt Q03431); assay: In vitro cAMP signal activity in HKRK-B7 cells (LLC-PK1 cells overexpressing the human PTH1 receptor); assay type: cell-based; details: HKRK-B7 cells; compound at 1×10^−3 M; […]; 0.1 µM
T1 sequence (Q03431 27-593): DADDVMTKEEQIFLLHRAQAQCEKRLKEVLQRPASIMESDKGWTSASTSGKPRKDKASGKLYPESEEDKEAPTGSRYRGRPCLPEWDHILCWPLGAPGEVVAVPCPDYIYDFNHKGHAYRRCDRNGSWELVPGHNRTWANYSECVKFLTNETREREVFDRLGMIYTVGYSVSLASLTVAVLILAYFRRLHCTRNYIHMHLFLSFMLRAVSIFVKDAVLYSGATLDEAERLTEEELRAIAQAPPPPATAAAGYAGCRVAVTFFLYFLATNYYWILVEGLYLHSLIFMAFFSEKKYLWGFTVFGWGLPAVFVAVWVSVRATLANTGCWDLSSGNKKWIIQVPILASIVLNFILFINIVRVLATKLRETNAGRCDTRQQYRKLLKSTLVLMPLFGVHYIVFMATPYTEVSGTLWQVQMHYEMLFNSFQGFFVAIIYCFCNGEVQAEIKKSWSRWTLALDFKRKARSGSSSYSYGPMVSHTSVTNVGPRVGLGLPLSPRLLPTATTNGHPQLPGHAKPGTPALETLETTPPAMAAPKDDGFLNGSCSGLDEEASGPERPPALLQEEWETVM

| SMILES | cAMP production activity (%) |
| --- | --- |
| CNC(=O)Nc1cccc(CCS(=O)(=O)N2CCC3(CC2)N=C(C2CCCCC2)NC3=O)c1C [Compound 459, 1-{3-[2-(2-Cyclohexyl-4-oxo-1,3,8-triaza-spiro[4.5]dec-1-ene-8-sulfonyl)-ethyl]-2-methyl-phenyl}-3-methyl-urea] | 55% |

same assay, conditions: HKRK-B7 cells; compound at 1×10^−3 M; cAMP produced as percentage of that produced by hPTH(1-34) at 100 nM

| SMILES | cAMP production activity (%) |
| --- | --- |
| Cc1cc(C(=O)N(C)C)cc(C)c1CCS(=O)(=O)N1CCC2(CC1)N=C(C1CCC(C)CC1)NC2=O (stereo not shown) [Compound 1379, 3,5,N,N-tetramethyl-4-{2-[2-(4-methyl-cyclohexyl)-4-oxo-1,3,8-triaza-spiro[4.5]dec-1-ene-8-sulfonyl]-ethyl}-benzamide] | 86% |
| Cc1cc(CN2C(=O)CCC2=O)cc(C)c1CCS(=O)(=O)N1CCC2(CC1)N=C(C1CCC(CCC(F)(F)F)CC1)NC2=O (stereo not shown) [Compound 777, 1-[3,5-dimethyl-4-(2-{4-oxo-2-[4-(3,3,3-trifluoro-propyl)-cyclohexyl]-1,3,8-triaza-spiro[4.5]dec-1-ene-8-sulfonyl}-ethyl)-benzyl]-pyrrolidine-2,5-dione] | 71% |
| Cc1cc(C(=O)N2CCC(C)(O)CC2)cc(C)c1/C=C/S(=O)(=O)N1CCC2(CC1)N=C(c1cccc(S(F)(F)(F)(F)F)c1)NC2=O [Compound 1190, 8-{(E)-2-[4-(4-hydroxy-4-methyl-piperidine-1-carbonyl)-2,6-dimethyl-phenyl]-ethenesulfonyl}-2-(3-pentafluorosulfanyl-phenyl)-1,3,8-triaza-spiro[4.5]dec-1-en-4-one] | 108% |
| Cc1cc(C(=O)N2CCC(CO)CC2)cc(C)c1CCS(=O)(=O)N1CCC2(CC1)N=C(c1cccc(OC(F)(F)F)c1)NC2=O [Compound 966, 8-{2-[4-(4-hydroxymethyl-piperidine-1-carbonyl)-2,6-dimethyl-phenyl]-ethanesulfonyl}-2-(3-trifluoromethoxy-phenyl)-1,3,8-triaza-spiro[4.5]dec-1-en-4-one] | 82% |
| Cc1cc(CNC(N)=O)cc(C)c1CCS(=O)(=O)N1CCC2(CC1)N=C(C1CCC(CCC(F)(F)F)CC1)NC2=O (stereo not shown) [Compound 1313, [3,5-Dimethyl-4-(2-{4-oxo-2-[4-(3,3,3-trifluoro-propyl)-cyclohexyl]-1,3,8-triaza-spiro[4.5]dec-1-ene-8-sulfonyl}-ethyl)-benzyl]-urea] | 87% |
| Cc1cc(N2C(=O)NC(C)(C)C2=O)cc(C)c1/C=C/S(=O)(=O)N1CCC2(CC1)N=C(c1cccc(OC(F)(F)F)c1)NC2=O [Compound 615, 3-(3,5-dimethyl-4-{(E)-2-[4-oxo-2-(3-trifluoromethoxy-phenyl)-1,3,8-triaza-spiro[4.5]dec-1-ene-8-sulfonyl]-vinyl}-phenyl)-5,5-dimethyl-imidazolidine-2,4-dione] | 46% |
| Cc1cc(C(=O)N2CCC(O)(CO)CC2)cc(C)c1/C=C/S(=O)(=O)N1CCC2(CC1)N=C(c1ccc(F)c(C(F)(F)F)c1)NC2=O [Compound 971, 2-(4-fluoro-3-trifluoromethyl-phenyl)-8-{(E)-2-[4-(4-hydroxy-4-hydroxymethyl-piperidine-1-carbonyl)-2,6-dimethyl-phenyl]-ethenesulfonyl}-1,3,8-triaza-spiro[4.5]dec-1-en-4-one] | 83% |
| Cc1cc(S(=O)(=O)Nc2ccncc2)ccc1CCS(=O)(=O)N1CCC2(CC1)N=C(c1cccc(OC(F)(F)F)c1)NC2=O [Compound 846, 3-methyl-4-{2-[4-oxo-2-(3-trifluoromethoxy-phenyl)-1,3,8-triaza-spiro[4.5]dec-1-ene-8-sulfonyl]-ethyl}-N-pyridin-4-yl-benzenesulfonamide] | 47% |
| Cc1cc(N(C)C(N)=O)cc(C)c1CCS(=O)(=O)N1CCC2(CC1)N=C(C1C3CCC1CC3)NC2=O (stereo not shown) [Compound 1056, 1-{4-[2-(2-bicyclo[2.2.1]hept-7-yl-4-oxo-1,3,8-triaza-spiro[4.5]dec-1-ene-8-sulfonyl)-ethyl]-3,5-dimethyl-phenyl}-1-methyl-urea] | 94% |
| Cc1cc(N(C)C(N)=O)cc(C)c1CCS(=O)(=O)N1CCC2(CC1)N=C(c1cccc(-c3ccccc3-c3ccccc3)c1)NC2=O [Compound 1087, 1-{3,5-Dimethyl-4-[2-(4-oxo-2-[1,1′;2′,1″]terphenyl-3-yl-1,3,8-triaza-spiro[4.5]dec-1-ene-8-sulfonyl)-ethyl]-phenyl}-1-methyl-urea] | 97% |
| Cc1cc(N2C(=O)NC(C)(C)C2=O)cc(C)c1CCS(=O)(=O)N1CCC2(CC1)N=C(C1CCC(C)CC1)NC2=O (stereo not shown) [Compound 869, 3-(3,5-dimethyl-4-{2-[2-(4-methyl-cyclohexyl)-4-oxo-1,3,8-triaza-spiro[4.5]dec-1-ene-8-sulfonyl]-ethyl}-phenyl)-5,5-dimethyl-imidazolidine-2,4-dione] | 65% |
| CC(=O)NCCNS(=O)(=O)c1ccc(CCS(=O)(=O)N2CCC3(CC2)N=C(C2CCCCC2)NC3=O)c(C)c1 [Compound 664, N-(2-{4-[2-(2-cyclohexyl-4-oxo-1,3,8-triaza-spiro[4.5]dec-1-ene-8-sulfonyl)-ethyl]-3-methyl-benzenesulfonylamino}-ethyl)-acetamide] | 77% |
| CC(=O)N(C)c1cc(C)c(/C=C/S(=O)(=O)N2CCC3(CC2)N=C(c2cccc(OC(F)(F)F)c2)NC3=O)c(C)c1 [Compound 239, N-(3,5-dimethyl-4-{(E)-2-[4-oxo-2-(3-trifluoromethoxy-phenyl)-1,3,8-triaza-spiro[4.5]dec-1-ene-8-sulfonyl]-vinyl}-phenyl)-N-methyl-acetamide] | 80% |
| Cc1cc(C(=O)N2CCC(C)(O)CC2)cc(C)c1/C=C/S(=O)(=O)N1CCC2(CC1)N=C(c1ccc(C(F)(F)F)c(OCC(F)(F)C(F)(F)F)c1)NC2=O [Compound 1228, 8-{(E)-2-[4-(4-hydroxy-4-methyl-piperidine-1-carbonyl)-2,6-dimethyl-phenyl]-ethenesulfonyl}-2-[3-(2,2,3,3,3-pentafluoro-propoxy)-4-trifluoromethyl-phenyl]-1,3,8-triaza-spiro[4.5]dec-1-en-4-one] | 68% |
| CC(=O)N1CCN(C(=O)c2cc(C)c(/C=C/S(=O)(=O)N3CCC4(CC3)N=C(c3cccc(OC(F)(F)F)c3)NC4=O)c(C)c2)CC1 [Compound 394, 8-{(E)-2-[4-(4-Acetyl-piperazine-1-carbonyl)-2,6-dimethyl-phenyl]-ethenesulfonyl}-2-(3-trifluoromethoxy-phenyl)-1,3,8-triaza-spiro[4.5]dec-1-en-4-one] | 59% |
| CCCCCCCCCC1=NC2(CCN(S(=O)(=O)CCc3c(C)cc(N(C)C(N)=O)cc3C)CC2)C(=O)N1 [Compound 817, 1-{3,5-dimethyl-4-[2-(2-nonyl-4-oxo-1,3,8-triaza-spiro[4.5]dec-1-ene-8-sulfonyl)-ethyl]-phenyl}-1-methyl-urea] | 111% |
| Cc1cc(N(C)C(N)=O)cc(C)c1CCS(=O)(=O)N1CCC2(CC1)N=C(C1CCC(C)CC1)NC2=O (stereo not shown) [Compound 470, 1-(3,5-Dimethyl-4-{2-[2-(4-methyl-cyclohexyl)-4-oxo-1,3,8-triaza-spiro[4.5]dec-1-ene-8-sulfonyl]-ethyl}-phenyl)-1-methyl-urea] | 90% |
| COC(=O)c1cc(C)c(S(=O)(=O)N2CCC3(CC2)N=C(C2CCCCC2)NC3=O)s1 [Compound 63, 5-(2-cyclohexyl-4-oxo-1,3,8-triaza-spiro[4.5]dec-1-ene-8-sulfonyl)-4-methyl-thiophene-2-carboxylic acid methyl ester] | 51% |
